Measured values published in patent publication US5888993A, “Vanadium compounds in the treatment of elevated blood sugar levels” (The University of British Columbia, priority 1997, dated 1999).
“And” between values parts separate entries of the source, which are not always exact repeats. Identical values can stand only once.

Legend:
[1] = log p (partition coefficient); format: physicochemical
diabetic rats [2] = experiment: BMOV single oral gavage, STZ diabetic rats; format: in vivo, rat; conditions: 160 μmol/kg
normal rats = experiment: Prolonged administration in drinking water (77 days), normal (control) rats; format: in vivo, rat
Experimental: BMOV was administered to normal and diabetic rats in drinking water.
The study was composed of 4 groups of animals Control (8 animals), Control-Treated (11 animals), Diabetic (11 animals) and Diabetic-Treated (12 animals). The diabetic state was induced by injecting STZ at 60 mg/kg dissolved in 0.9% NaCl I.V. via the tail vein to anaesthetized rats. The two control groups were injected with 0.9% NaCl I.V. through the tail vein. The diabetic state was determined with a "Testape"™ test at 3 days post-injection and later confirmed with a glucometer test. Blood glucose and insulin assays were carried out post-injection over the course of the study. Treatment according to the invention was started 1 week after determination of the diabetic state.
Treated diabetic animals received between 0.3 and 0.5 mmol/kg of the compound/day in drinking water over a 77 day period. Treated control animals received a slightly lower dose (0.2-0.3 mmol/day) over the same period. The concentration of BMOV in the drinking water was varied between 1.6 and 3.2 mM. The reason for the differing doses in the two sets of animals is that the two groups drank different amounts of water daily; it was difficult to attain the same dose in both groups.
1. As indicated above, 4 groups of animals were studied, but the diabetic-treated group was sub-divided to diabetic-treated responders (8 animals) and diabetic-treated non-responders (4 animals). Curve 1 is the control group, curve 2 the control-treated group, curve 3 the diabetic group, curve 4 is the diabetic-treated responders and curve 5 is the diabetic-treated non-responders. […] Treatment began with a […] solution of the compound. […] On day 24, the concentration was increased to 2.37 mM (0.7 mg/ml).

STZ-diabetic rats = experiment: Comparison of BMOV and ETHYLBMOV, plasma glucose and insulin in STZ-diabetic rats; format: in vivo, rat; conditions: 0.6 mmol kg^-1, one oral gavage, 24 hour period
Experimental: Animal studies were conducted in STZ-diabetic rats comparing doses of 0.6 mmol kg^-1 for VO(ma)2 (BMOV) and VO(ema)2 (ETHYLVMOV). FIGS. 8 and 9 respectively show plasma glucose and plasma insulin values recorded over 24 hour periods after one oral gavage of a water solution of either BMOV or ETHYLBMOV, in order to compare their efficacies.

diabetic rats [3] = experiment: Blood glucose response after i.p. injection in STZ diabetic rats; format: in vivo, rat
Experimental: Initial experiments were carried out to determine pharmacological effectiveness of BMOV. Using male rats, made diabetic by the injection of streptoxoticin (STZ) at a dose of 60 mg/kg i.v., BMOV was initially given by intraperitoneal (i.p.) injection as a suspension in 1% methyl cellulose.
Two animals developed hypoglycemia.

[4] = control treated, week 6, mean ± S.E.M.

Cc1occc(=O)c1[O-].Cc1occc(=O)c1[O-].[O]=[V+2] [BMOV, Bis(maltolato)oxovanadium(IV)]
log p [1]: 0.12
rats responding with a decrease in blood glucose (diabetic rats [2]): Six out of six
time of peak fall in blood glucose (diabetic rats [2]): 5 h
time for return of blood glucose to diabetic levels (diabetic rats [2]; usually): ≤ 12 h
insulin vs control, in words (normal rats; control treated): significantly lower
fluid intake (normal rats; control treated, day 77 (control 62.7±7.4)): 33.6 ± 7.2 mL
Cholesterol (normal rats; control treated, pretreatment (day before treatment started), mean ± S.E.M.): 1.64 ± 0.08 mmol/L
Triglyceride (normal rats; control treated, pretreatment, mean ± S.E.M.): 1.21 ± 0.14 mmol/L
Cholesterol (normal rats; [4]): 1.60 ± 0.06 mmol/L
Triglyceride (normal rats; [4]): 2.04 ± 0.22 mmol/L
food intake (normal rats; control-treated (control 29±0.1)): 25.5±0.3 grams per day
weight gain (normal rats; control-treated, 77 days, drinking water (control 250 g)): 200 g
fluid consumption vs all other groups, in words (normal rats; control-treated, by day 63): significant difference
weight gain, in words (normal rats; control-treated, from day 56): significantly decreased weight gain
food consumption vs all other groups, in words (normal rats; control-treated, from day 63 on): significant difference
plasma glucose, difference BMOV vs ETHYLBMOV (STZ-diabetic rats): statistically insignificant
plasma insulin, difference BMOV vs ETHYLBMOV (STZ-diabetic rats): statistically insignificant
water solubility, in words (Water solubility): quite water-soluble
water solubility (Water solubility; water): about 7 mM and ~2 mg/mL
animals that developed hypoglycemia (diabetic rats [3]; 15 mg/kg i.p.): Two animals
rats responding with a decrease in blood glucose (diabetic rats [3]; 15 mg/kg i.p. (0.05 mmol/kg), suspension in 1% methyl cellulose): Nine out of the twelve
